Key:
lung cancer H292 = assay: MTT cytotoxicity, lung cancer H292; type: cell-based; conditions: n = 6
Experimental: (§1) The toxic action of Embodiment platinum containing compounds was observed on tumor cells by MTT colorimetric method. Several kinds of tumor cells in exponential growth phase were prepared into single cell suspension, inoculated on 96 pore plat at the density of 4×10^4/hole, cultivated for 24 hours to enable to adhere to wall with 1640 culture medium containing 10% fetal calf serum (complete medium) at 37° C.; the final culture volume was 100 μl. Cell morphology was observed after culture for 24 hours.

testis cell ST = assay: MTT cytotoxicity, testis cell ST; type: cell-based; conditions: n = 6
Experimental: as §1

gastric cancer MGC803 = assay: MTT cytotoxicity, gastric cancer MGC803; type: cell-based; conditions: n = 6
Experimental: as §1

esophagus cancer ECA109 = assay: MTT cytotoxicity, esophagus cancer ECA109; type: cell-based; conditions: n = 6
Experimental: as §1

[1] = tested on: lung cancer Lewis cell line; assay: In vivo antitumor activity, lung cancer Lewis in nude mice; conditions: 15 mg/kg, every 2 days, 4 times, end 30 days after inoculation
[2] = tested on: Pulmonary epithelial cell BEAS-2B; assay: MTT cytotoxicity, pulmonary epithelial cell BEAS-2B; type: cell-based; conditions: n = 6
Experimental: as §1

colon cancer SW480 = assay: MTT cytotoxicity, colon cancer SW480; type: cell-based; conditions: n = 6
Experimental: as §1

lung cancer Lewis = assay: MTT cytotoxicity, lung cancer Lewis; type: cell-based; conditions: n = 6
Experimental: as §1

[3] = tested on: colon cancer SW480 cell line; assay: In vivo antitumor activity, colon cancer SW480 in nude mice (1); conditions: SW480, 4 mg/kg, every other day, 4 times, tumor weighed after 10 days
Description: The calculation formula of tumor inhabitation rate is: […]

normal mice = assay: Acute toxic effect of platinum complex on normal mice (LD50); type: in vivo, Kunming mice; conditions: single intravenous administration in 5% glucose, 14 days observation, Bliss method
Experimental: Test 1: Acute Toxic Effect of Platinum Complex on Normal Mice
Embodiment platinum compound was dissolved with 5% glucose solution. […] Mortality and toxicity were observed after administration.

Solubility in water = conditions: in water
[4] = tested on: colon cancer SW480 cell line; assay: In vivo antitumor activity, colon cancer SW480 in nude mice (2), dose series; conditions: 3 days, tumor weighed 24 hours after drug discontinuance

Compound	IC50 (lung cancer H292)	IC50 (testis cell ST)	IC50 (gastric cancer MGC803)	IC50 (esophagus cancer ECA109)	tumor inhibition rate (%) [1]	IC50 [2]	IC50 (colon cancer SW480)	IC50 (lung cancer Lewis)	tumor inhibition rate (%) (x ±SD) [3]	LD50 value (normal mice)	solubility (Solubility in water)	tumor inhibition rate (%) (x ±SD) ([4]; SW480, 3 mg/kg)	tumor inhibition rate (%) (x ±SD) ([4]; SW480, 5 mg/kg)	tumor inhibition rate (%) (x ±SD) ([4]; SW480, 10 mg/kg)	tumor inhibition rate (%) (x ±SD) ([4]; SW480, 15 mg/kg)
2-(2-diethylamine ethyl)-malonic.cis-1,4-(trans-2,3-cyclobutyl)-butanediamine platinum (II) phosphate [compound 26]	136 µM	312 µM	234 µM	163 µM	72.4 ± 16.78%	–	–	–	–	–	–	–	–	–	–
CCCN(CCC)CCC1C(=O)[O][Pt]([NH2])([NH2])[O]C1=O.O=P(O)(O)O [compound 7, 2-(2-di-n-propylamineethyl)-malonic-cis-diamino platinum (II) phosphate]	124 µM	–	–	–	–	75 µM	51 µM	128 µM	28.5 ± 7.65 %	–	–	–	–	–	–
CCN(CC)CCC1C(=O)[O][Pt]2([NH]C3CCC(CC3)[NH]2)[O]C1=O.O=P(O)(O)O (stereo not drawn) [compound 27, [2-(2-diethylamine ethyl)-malonato].[cis-1,4-cyclohexyldiamine] platinum (II) phosphate]	158 µM	360 µM	453 µM	350 µM	71.3 ± 10.54%	–	–	–	–	0.729 mmol/kg	145 mg/mL	–	–	–	–
[2-(2-diethylamine ethyl)-malonato].[cis-1,3-(2,2-(4-oxacyclohexyl))-propyldiamine]platinum (II) phosphate [compound 28]	99 µM	138 µM	162 µM	256 µM	73.3 ± 17.92%	–	–	–	–	0.767 mmol/kg	–	–	–	–	–
[2-(2-dimethylamine ethyl)-malonato].[cis-trans-1,2-diaminomethylcyclobutane]platinum (II) phosphate [compound 25]	53 µM	114 µM	341 µM	196 µM	80.1 ± 9.65 %	–	–	–	–	0.520 mmol/kg	–	–	–	–	–
[2-(3-di-n-propylamine propyl)-malonato].[cis-diamine] platinum (II) mesylate [compound 8]	201 µM	–	–	–	–	49 µM	20 µM	57 µM	29.7 ± 8.81 %	0.806 mmol/kg	–	40.4 ± 5.02 %	73.6 ± 9.18%	74.4 ± 12.25%	82.8 ± 10.07 %

Reference: patent US9138421B2, “Platinum compounds for treating cell proliferative diseases, preparation method and use thereof” (priority 2011, dated 2015)
